Source: PubChem BioAssay (NCI)
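Five concentrations, 48 hours, 96-well plates. TGI is the concentration that stops growth completely.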

Columns and labels:
Assay in all cases: NCI tumour cell line growth inhibition, 48 h
[1] = test system: OVCAR-5 ovarian
[2] = test system: NCI-H522 lung
[3] = test system: SK-OV-3 ovarian
[4] = test system: MALME-3M melanoma
[5] = test system: NCI-H460 lung
[6] = test system: HOP-62 NSCLC
[7] = test system: SNB-19 CNS
[8] = test system: K-562 leukemia
[9] = test system: MCF7 breast
[10] = test system: EKVX NSCLC
[11] = test system: MOLT-4 leukemia

| Compound | TGI [1] [µM] | TGI [2] [µM] | TGI [3] [µM] | TGI [4] [µM] | TGI [5] [µM] | TGI [6] [µM] | TGI [7] [µM] | TGI [8] [µM] | TGI [9] [µM] | TGI [10] [µM] | TGI [11] [µM] |
| --- | --- | --- | --- | --- | --- | --- | --- | --- | --- | --- | --- |
| Cc1cc(O)c(C(C)C)cc1N=Cc1ccccc1O | 41.2 | 17.2 | 28.8 | 28.4 | 24.6 | 26.1 | 36.5 | > 22.3 | 78.9 | 26.8 |  |
| CC1(C)CC[C@]2(C(=O)O)[C@H](O)C[C@]3(C)C(=CC[C@@H]4[C@@]5(C)CC[C@H](OC6OC(C(=O)O)C(O)C(O)C6O)C(C)(C)[C@@H]5CC[C@]43C)[C@@H]2C1 (stereo partly drawn) | > 100 | > 100 | > 100 | > 100 | > 100 | > 100 | > 100 | > 100 | > 100 | > 100 | > 100 |
| Nc1ccc(-c2nc3ccccc3s2)cc1Br | > 100 | > 100 | > 100 | > 100 | > 100 | > 68.3 | > 100 | > 100 | > 100 | > 100 | > 100 |
| CN(C)c1ccc(/C=c2/c3cc([N+](=O)[O-])ccc3n3c2cc(-c2ccccc2)[n+]3C)cc1 | 10.8 | 1.9 | 11.3 | 1.18 | 11.7 | 10.1 | 3.84 | 7.42 | 8.07 | 7.81 | 8.85 |
| C#CCOC(=O)C(N)CCSC (stereo not drawn) | > 100 | > 100 | > 100 | > 100 |  | > 100 |  |  | > 100 | > 100 | > 100 |
| CC1CN=C(c2ccc(COc3ccc(C4=NCC(C)N4)cc3)cc2)N1 (stereo not drawn) | > 100 | > 100 | > 100 | > 100 | > 100 | > 100 | > 100 | > 100 | > 100 | > 100 | > 100 |
| Brc1cccc[n+]1-c1ccc2cc(-[n+]3ccccc3Br)ccc2c1 | > 100 | > 100 | 55.6 | 72.7 | > 100 | 75.6 | > 100 | > 100 | > 100 | > 100 |  |
| CC(C)c1cccc(C(C)C)c1OS(=O)(=O)NC(=O)OC(C(F)(F)F)C(F)(F)F | > 100 | > 100 | > 100 | > 100 | > 100 | 91.3 | > 100 | 66.6 | > 100 | > 100 | 55.6 |
| O=C(O)CC(O)(C(=O)O)C(O)C(=O)O (stereo not drawn) | > 1000 | > 1000 | > 1000 | > 1000 | > 1000 | > 1000 | > 1000 | > 1000 | > 1000 | > 1000 | > 1000 |
| C[N+](C)(N)c1nc(N)c(C#N)c(C#N)c1C#N | > 10 | > 10 | > 10 | > 10 | > 10 | > 10 | > 10 | > 10 | > 10 | > 10 | > 10 |
| C=C1c2nc3ccccc3n2C=C(c2ccc(OC)cc2)N1c1ccc(OCCN2CCOCC2)cc1 | > 100 | 3.63 | > 100 | 27.6 | > 49.9 | > 100 | > 100 | > 100 | > 100 | > 100 | > 100 |
| O=C(Oc1cccc(Cl)c1)c1cc2cc(CCl)ccc2oc1=O | > 100 | 49.5 | > 100 | 33.5 | > 100 | > 100 | > 100 | > 100 | 99.6 | > 100 | > 100 |
| C#CCCCC(=O)N(C(=O)CS(=O)CC)c1ccccc1 (stereo not drawn) | > 100 | > 100 | > 100 | > 100 | > 100 | > 100 | > 100 | > 100 | > 100 | > 100 | > 100 |
| OCC(O)C(O)C(O)C(O)/C=N/Nc1nc(O)c(/C=C2\C=Nc3ccccc32)[nH]1 (stereo not drawn) | > 100 | > 100 | > 100 | > 100 | > 100 | > 100 | > 100 | > 100 | > 100 | > 100 | > 100 |
| CN(C)CCn1nc(N)c2nc3cc(C(F)(F)F)ccc3nc21 | > 100 | > 100 | > 100 | > 100 | > 100 | > 100 | > 100 | > 100 | > 100 | > 100 | > 100 |
| CC[C@H](C)C1=C(OC(C)=O)[N@+]2([O-])Oc3ccc(-c4c(OC(C)=O)c(OC(C)=O)c(-c5ccc(OC(C)=O)cc5)c(OC(C)=O)c4OC(C)=O)cc3O[C@]2([C@@H](C)CC)C(=O)N1OC(C)=O | > 50 | 16 | 49.4 | > 50 | > 50 |  | > 50 | > 50 | > 50 | 22.5 | 36 |
| NCCCC[C@H](N)C(=O)Nc1ccc(-c2nc3ccccc3s2)cc1Cl | 17.8 | 11 | 31.1 | 28.3 | 13.7 | 31.7 | 32.9 | > 25 | 9.01 | 19.6 | > 24.1 |
| O=C1c2cc([N+](=O)[O-])sc2C(=O)c2ccsc21 | 3.22 | 0.379 | 2.95 | 0.327 | 0.853 | 0.486 | 3.33 | 0.191 | 0.69 | 3.01 | 0.456 |
| Cc1ccc2c(=O)c(-c3n[nH]c(=S)s3)c[nH]c2n1 | > 100 | > 100 |  | > 100 | > 100 | > 100 | > 100 | > 100 | > 100 | > 100 | > 100 |
| N=C(c1cccs1)C1(N2CCCCC2)CCCCC1 | 34.6 | 30.9 | 46.8 | 30.2 | 30 | 47.8 | 34.8 | 32 | 30.5 | 41.3 | 30.9 |
